Test results: article PMC5720837, “Identification of a 4-fluorobenzyl L-valinate amide benzoxaborole (AN11736) as a potential development candidate for the treatment of Animal African Trypanosomiasis (AAT)” (Bioorganic & Medicinal Chemistry Letters, 2018)
Several values for one entry are separate records, joined by “and”; a condition that tells them apart may be missing. Identical values can stand only once.

How the values were obtained:
[1] = system: Trypanosoma congolense (T. congolense IL-3000 strain), bloodstream form; experiment: Whole cell Alamar Blue assay, T. congolense (72 h in vitro); assay type: cell-based; conditions: T. congolense IL-3000, 72 h in vitro Alamar Blue assay
Method: (§1) Activity of compounds 1–71 against T. congolense and T. vivax was determined using the whole cell assays as described ^6 and their IC50 values are summarized in Table 1.
(§2) [6] Assay methods for determination of T. c. and T. v. […] Culture media consisted of complete HMI-9 (IMDM) with 20% bovine serum. To ensure log growth phase, trypanosomes were sub-cultured at appropriate dilutions every 2–3 days. Bloodstream form Trypanosoma vivax (T. vivax) cannot be cultured axenically, therefore trypanosomes (T. vivax STIB719/ILRAD 560 strain) were harvested from a highly parasitemia mouse via cardiac puncture and used directly in the ex vivo drug sensitivity assay on the same day. […] Parasite starting concentrations of 2 × 10^5 (T. c.) and 4 × 10^5 (T. v.) were calculated respectively, using a cell analyzer system or haemo-cytometer, followed by quantification at 536 nm excitation and 588 nm emission wavelengths using a […] reader. Test compounds were prepared as 10 mg/mL DMSO stocks for each assay run. Compounds were assayed in at least three separate, independent test runs and an 11-point dilution curve was used to determine the IC50 values. Data points were averaged to generate sigmoidal dose-response curves and IC50 values were determined using Softmax Pro 5.2 software.

[2] = system: Trypanosoma vivax (T. vivax STIB719/ILRAD 560 strain), bloodstream form; experiment: Whole cell Alamar Blue assay, T. vivax (48 h ex vivo); assay type: cell-based; conditions: Trypanosoma vivax; T. vivax STIB719/ILRAD 560, 48 h ex vivo Alamar Blue assay
Method: as §1, §2

[3] = In vitro metabolic stability, mouse S9; assay type: in vitro ADME; conditions: S9 fraction
Method: (§3) Selected compounds were screened in both mouse and bovine in vitro metabolic stability assays (mouse S9 and bovine S9), as summarized in Table 2. These two species were chosen because the primary in vivo assays were conducted in mice, and the target animal of this research program is cattle. […] We evaluated the efficacy of selected compounds in two in vivo mouse models of infection, against T. congolense and T. vivax, respectively. Mice were infected with either 1 × 10^5 T. c. parasites or 1 × 10^4 T. v. parasites, and then treated with a test compound via intraperitoneal administration for 1, 2 or 4 consecutive days. The mice were then monitored for the presence of parasitemia for up to 60 days post treatment.[7] We tested in T. c. model first, then followed up with T. v. for interesting compounds. […] We selected compound 5 (AN11736) to progress to exploratory studies to determine the efficacy and safety in a preliminary formulation against induced infections of T. vivax and T. congolense in cattle.[8]

[4] = In vitro metabolic stability, bovine S9; assay type: in vitro ADME; conditions: S9 fraction
Method: as §3

[5] = system: T. c. parasites (STIB736/IL1180 strain); experiment: In vivo mouse model of T. congolense infection; set-up: species or system NMRI female mice; conditions: for Efficacy in mouse model T. c., n/m (mice survived / total mice in group): intraperitoneal, monitored 60 days post treatment; for cure of T. c.-infected mice: single 5 mg/kg dose
Method: as §3
(§4) [7] Methods for testing compound efficacy in mouse models: In vivo mouse efficacy studies were performed at the Swiss TPH, using established mouse models of infection for T. c. and T. v. NMRI female mice were independently infected either with 1 × 10^5T. c. parasites/mouse (STIB736/IL1180 strain) or 1 × 10^4T. v. parasites/mouse (STIB719/ILRAD560 strain) using an intraperitoneal route. Parasitemia was allowed to develop over 7 days (T. c.) or 3 days (T. v.), respectively, before treatment was administered. Compounds were administered via intraperitoneal injection in 10% DMSO/water. Four mice were used per treatment group. Mice were monitored for the presence of trypanosomes, via tail blood examination microscopically with twice-per-week parasitemia checks for 60 days post treatment. Parasitemia was graded on a scale of 0–3, with 0 indicating no trypanosomes seen in 20 fields of view, 1 indicating the presence of 1–5 trypanosomes per field, 2 indicating the presence of 6–20 trypanosomes per field and 3 indicating greater than 20 trypanosomes per field. Mice scoring 2 or 3 were immediately euthanized. After 60 days, aparasitemic mice were considered cured. Untreated control mice survive on average for 10 and 6 days post infection for T. c. and T. v., respectively. All in vivo mouse experiments were conducted in accordance with the strict guidelines set out by the Swiss Federal Veterinary Office, under the ethical approval of license number #2813.

[6] = system: T. v. parasites (STIB719/ILRAD560 strain); experiment: In vivo mouse model of T. vivax infection; set-up: species or system NMRI female mice; conditions: for Efficacy in mouse model T. v., n/m (mice survived / total mice in group): intraperitoneal, monitored 60 days post treatment; for curative efficacy in the T. v.-infected mouse model: single dose of 10 mg/kg, IP
Method: as §3, §4

T. congolense = experiment: Efficacy against induced T. congolense infection in cattle; assay type: in vivo; conditions: single intramuscular injection of 10 mg/kg, 100 days post treatment
Method: as §3
(§5) [8] Method for testing compound efficacy in cattle: The cattle studies were conducted in accordance with the method described for cattle by Eisler et al. (2001) in studies conducted in fly-proof facilities and using T. congolense and T. vivax isolates that had previously been confirmed resistant in cattle to diminazine (7 mg/kg live weight) and/or isometamidium (1 mg/kg live weight). […]

T. vivax = experiment: Efficacy against induced T. vivax infection in cattle; assay type: in vivo; conditions: single intramuscular injection of 10 mg/kg, 100 days post treatment
Method: as §3, §5

Row | SMILES | IC50 ([1]; Trypanosoma congolense, 72 h) | IC50 [2] | microsomal CLint [3] | microsomal CLint [4] | Efficacy in mouse model T. c., n/m (mice survived / total mice in group) ([5]; 1 × 10 mg/kg) | Efficacy in mouse model T. v., n/m (mice survived / total mice in group) ([6]; 1 × 10 mg/kg) | IC50 [1] | Efficacy in mouse model T. c., n/m (mice survived / total mice in group) ([5]; 1 × 5 mg/kg) | Efficacy in mouse model T. c., n/m (mice survived / total mice in group) ([5]; 2 × 10 mg/kg) | cure of T. c.-infected mice ([5]; IP) | Efficacy in mouse model T. v., n/m (mice survived / total mice in group) ([6]; 1 × 10 mg/kg, 10 mg/kg) | Efficacy in mouse model T. v., n/m (mice survived / total mice in group) ([6]; 2 × 10 mg/kg) | curative efficacy in the T. v.-infected mouse model [6] | curative efficacy against T. congolense in cattle (T. congolense) | curative efficacy against T. vivax in cattle (T. vivax) | curative efficacy in the T. c.-infected mouse model ([5]; single dose of 10 mg/kg, IP)
1 | Cc1c(C(=O)N[C@H](C(=O)OC2CCOCC2)C(C)C)ccc2c1B(O)OC2 [Compound 69] | 0.47 nM | 1.6 nM | 0.7 µL/min/mg | 0.6 µL/min/mg | 1/4 (1 × 10) | 1/4 (1 × 10) |  |  |  |  |  |  |  |  |  | 
2 | Cc1c(C(=O)N[C@H](C(=O)OCc2cccc(CN(C)C)c2)C(C)C)ccc2c1B(O)OC2 [Compound 51] | 0.25 nM | 0.21 nM | 1.8 µL/min/mg | 5 µL/min/mg | 0/4 (1 × 10) | 4/4 (1 × 10) |  |  |  |  |  |  |  |  |  | 
3 | Cc1c(C(=O)N[C@H](C(=O)OCc2ccc(F)cc2)C(C)C)ccc2c1B(O)OC2 [Compound 5, 4-fluorobenzyl (1-hydroxy-7-methyl-1,3-dihydrobenzo[c][1,2]oxaborole-6-carbonyl)-L-valinate] | 0.15 nM | 1.3 nM | 5.4 µL/min/mg | 9.3 µL/min/mg | 4/4 |  | 0.14 nM | 0/4 | 5/5 | unable to cure | 5/5 and 4/4 | 5/5 | 100% | 100% | 100% | 
4 | Cc1c(C(=O)N[C@H](C(=O)OCc2cccc(N3CCN(C)CC3)c2)C(C)C)ccc2c1B(O)OC2 [Compound 50] | 0.32 nM | 0.48 nM | 8.6 µL/min/mg | 12.7 µL/min/mg | 1/4 (1 × 10) | 4/4 (1 × 10) |  |  |  |  |  |  |  |  |  | 
5 | Cc1c(C(=O)N[C@H](C(=O)OCc2ccc(C(F)(F)F)cn2)C(C)C)ccc2c1B(O)OC2 [Compound 34] | 0.14 nM | 0.07 nM | 11.8 µL/min/mg | 4.8 µL/min/mg | 2/4 (1 × 10) | 4/4 (1 × 10) |  |  |  |  |  |  | 100% |  |  | ≥ 50%
6 | Cc1c(C(=O)N[C@H](C(=O)OC2CCC(F)(F)CC2)C(C)C)ccc2c1B(O)OC2 [Compound 70] | 0.34 nM | 2.28 nM | 1.5 µL/min/mg | 0.3 µL/min/mg | 1/4 (1 × 10) | 4/4 (1 × 10) |  |  |  |  |  |  |  |  |  | 
7 | Cc1c(C(=O)N[C@H](C(=O)OCc2ccc(F)c(F)c2)C(C)C)ccc2c1B(O)OC2 [Compound 8] | 0.28 nM | 0.07 nM | 7.9 µL/min/mg | 5.6 µL/min/mg | 4/4 | 4/4 (1 × 10) |  | 0/4 |  | unable to cure |  |  | 100% |  |  | 
